Reference: patent publication US8962608B2, “Cycloalkylnitrile pyrazole carboxamides as janus kinase inhibitors” (Merck Sharp & Dohme Corp., priority 2011, dated 2015)
pIC50: −log10 of the molar value.

Legend:
[1] = biological target: JAK1 (recombinant purified GST-tagged catalytic domain) (Homo sapiens (Human), UniProt P23458); experiment: biochemical;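 note: biochemical assay with HTRF read-out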
[2] = biological target: JAK2 (recombinant purified GST-tagged catalytic domain) (Homo sapiens (Human), UniProt O60674); experiment: biochemical;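 note: biochemical JAK kinase assay with HTRF detection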
Chain of JAK2 (recombinant purified GST-tagged catalytic domain) (O60674 849-1124): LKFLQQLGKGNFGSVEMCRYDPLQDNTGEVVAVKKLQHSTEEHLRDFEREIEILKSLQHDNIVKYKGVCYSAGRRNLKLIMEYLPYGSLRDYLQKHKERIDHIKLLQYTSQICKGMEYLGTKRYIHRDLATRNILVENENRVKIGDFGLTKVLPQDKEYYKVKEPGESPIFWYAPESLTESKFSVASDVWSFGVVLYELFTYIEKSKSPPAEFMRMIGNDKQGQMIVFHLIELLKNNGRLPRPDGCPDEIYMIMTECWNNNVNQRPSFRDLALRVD

Chain of JAK1 (recombinant purified GST-tagged catalytic domain) (P23458 875-1153): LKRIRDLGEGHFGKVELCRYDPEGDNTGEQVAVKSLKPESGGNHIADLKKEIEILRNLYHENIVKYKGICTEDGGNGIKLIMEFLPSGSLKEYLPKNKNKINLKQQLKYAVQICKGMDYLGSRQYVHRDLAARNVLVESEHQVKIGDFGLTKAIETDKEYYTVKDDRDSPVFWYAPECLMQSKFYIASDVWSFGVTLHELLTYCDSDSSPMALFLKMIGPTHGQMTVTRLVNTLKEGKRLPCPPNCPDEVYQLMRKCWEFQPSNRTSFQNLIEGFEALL

pIC50 [1] | pIC50 [2] | Structure (SMILES)
8.30 | 7.64 | N#C[C@@H]1C[C@H](C(=O)NC2CC2)CC[C@H]1n1cc(C(N)=O)c(Nc2ccc(Cl)cc2)n1 (single isomer, unassigned) [Example 35-19, 3-[(4-chlorophenyl)amino]-1-[(1R,2R,4R or 1S,2S,4S)-2-cyano-4-(cyclopropylcarbamoyl)cyclohexyl]-1H-pyrazole-4-carboxamide]
6.75 | 6.43 | N#C[C@H]1C[C@H](N[C@@H](C2CC2)C(F)(F)F)CC[C@@H]1n1cc(C(N)=O)c(Nc2ccc(C(F)(F)F)cc2)n1 (single isomer, unassigned) [Example 28-195, 1-[(1S,2S,4R or 1R,2R,4S)-2-cyano-4-{[(1R)-1-cyclopropyl-2,2,2-trifluoroethyl]amino}cyclo-hexyl]-3-{[4-(trifluoromethyl)phenyl]amino}-1H-pyrazole-4-carboxamide]
8.70 | 8.10 | N#C[C@H]1CCCCC1n1cc(C(N)=O)c(Nc2ccc3c(c2)CCC(=O)N3)n1 (mixture of isomers) [Example 17-11, 1-[(1S,2S and 1R,2R)-2-cyanocyclohexyl]-3-[(2-oxo-1,2,3,4-tetrahydroquinolin-6-yl)amino]-1H-pyrazole-4-carboxamide]
8.70 | 7.40 | N#C[C@H]1C[C@H](N2CCC2)CC[C@@H]1n1cc(C(N)=O)c(Nc2ccc(OC(F)(F)F)cc2)n1 (single isomer, unassigned) [Example 28-70, 1-[(1S,2S,4R or 1R,2R,4S)-4-azetidin-1-yl-2-cyanocyclohexyl]-3-{[4-(trifluoromethoxy)phenyl]amino}-1H-pyrazole-4-carboxamide]
8.70 | 8.05 | N#C[C@H]1C[C@H](OCC2CC2)CC[C@@H]1n1cc(C(N)=O)c(Nc2ccnc(F)c2)n1 (single isomer, unassigned) [Example 26-1, 1-[(1S,2S,4R or 1R,2R,4S)-2-cyano-4-(cyclopropylmethoxy)cyclohexyl]-3-[(2-fluoropyridin-4-yl)amino]-1H-pyrazole-4-carboxamide]
8.52 | 7.55 | N#C[C@H]1CCCC[C@@H]1n1cc(C(N)=O)c(Nc2ccnnc2)n1 (single isomer, unassigned) [Example 17-53, 1-[(1S,2S or 1R,2R)-2-cyanocyclohexyl]-3-(pyridazin-4-ylamino)-1H-pyrazole-4-carboxamide]
9.30 | 8.70 | N#C[C@H]1CCCC[C@@H]1n1cc(C(N)=O)c(Nc2ccc(S(=O)(=O)NCCN3CCCC3)cc2)n1 (single isomer, unassigned) [Example 17-87, 1-[(1R,2R or 1S,2S)-2-cyanocyclohexyl]-3-({4-[(2-pyrrolidin-1-ylethyl)sulfamoyl]phenyl}amino)-1H-pyrazole-4-carboxamide]
9.35 | 8.30 | COC1CN(C2CC[C@H](n3cc(C(N)=O)c(Nc4ccc(S(=O)(=O)C(F)(F)F)cc4)n3)[C@@H](C#N)C2)C1 (single isomer, unassigned) [Example 28-147, 1-[(1S,2S or 1R,2R)-2-cyano-4-(3-methoxyazetidin-1-yl)cyclohexyl]-3-({4-[(trifluoro-methyl)sulfonyl]phenyl}amino)-1H-pyrazole-4-carboxamide]
9.35 | 8.52 | N#C[C@H]1C[C@@H](O)CC[C@@H]1n1cc(C(N)=O)c(Nc2ccc([C@@H](O)C(F)(F)F)cc2)n1 (single isomer, unassigned) [Example 33-11, 1-[(1S,2S,4S or 1R,2R,4R)-2-cyano-4-hydroxycyclohexyl]-3-({4-[(1R or 1S)-2,2,2-trifluoro-1-hydroxyethyl]phenyl}amino)-1H-pyrazole-4-carboxamide]
9.00 | 7.92 | CNC(=O)O[C@@H]1CCC(n2cc(C(N)=O)c(Nc3ccc(F)cc3)n2)[C@@H](C#N)C1 (mixture of isomers) [Example 34-6, (1R,3S,4S and 1S,3R,4R)-4-{4-carbamoyl-3-[(4-fluorophenyl)aminol-1H-pyrazol-1-yl}-3-cyanocyclohexyl methylcarbamate]
8.15 | 6.66 | N#C[C@H]1C[C@@H](C(=O)NCC(F)(F)F)CC[C@@H]1n1cc(C(N)=O)c(Nc2ccc(Cl)cc2)n1 (single isomer, unassigned) [Example 35-22, 3-[(4-chlorophenyl)amino]-1-{(1S,2S,4S or 1R,2R,4R)-2-cyano-4-[(2,2,2-trifluoroethyl)carbamoyl]cyclohexyl}-1H-pyrazole-4-carboxamide]
8.70 | 8.15 | N#C[C@H]1CCCC[C@@H]1n1cc(C(N)=O)c(Nc2ccc(S(=O)(=O)NCc3ccc(C(F)(F)F)cc3)cc2)n1 (single isomer, unassigned) [Example 17-96, 1-[(1R,2R or 1S,2S)-2-cyanocyclohexyl]-3-[(4-{[4-(trifluoromethyl)benzyl]sulfamoyl}phenyl)amino]-1H-pyrazole-4-carboxamide]
8.00 | 6.74 | CC1(O)CN(C(=O)[C@H]2CC[C@H](n3cc(C(N)=O)c(Nc4ccc(Cl)cc4)n3)[C@@H](C#N)C2)C1 (single isomer, unassigned) [Example 35-30, 3-[(4-chlorophenyl)amino]-1-{(1S,2S,4S or 1R,2R,4R)-2-cyano-4-[(3-hydroxy-3-methylazetidin-1-yl)carbonyl]cyclohexyl}-1H-pyrazole-4-carboxamide]
8.70 | 7.82 | Cn1cc(-c2ccc(Nc3nn(C4CCCC[C@@H]4C#N)cc3C(N)=O)cn2)cn1 (mixture of isomers) [Example 21-2, 1-[(1S,2S and 1R,2R)-2-cyanocyclohexyl]-3-{[6-(1-methyl-1H-pyrazol-4-yl)pyridin-3-yl]amino)-1H-pyrazole-4-carboxamide]
7.57 | 6.73 | N#C[C@H]1C[C@H](NC2(C(F)(F)F)CC2)CC[C@@H]1n1cc(C(N)=O)c(Nc2ccc(Cl)cc2)n1 (single isomer, unassigned) [Example 28-227, 3-[(4-chlorophenyl)amino]-1-[(1S,2S,4R or 1R,2R,4S)-2-cyano-4-{[1-(trifluoro-methyl)cyclopropyl]a-mino}cyclohexyl]-1H-pyrazole-4-carboxamide]
6.37 | < 5.82 | COC(=O)C1CC[C@H](C#N)C(n2cc(C(N)=O)c(Nc3ccccc3)n2)C1 (mixture of isomers) [Example 2-4, methyl (3R,4R and 3S,4S)-3-[4-carbamoyl-3-(phenylamino)-1H-pyrazol-1-yl]-4-cyanocyclohexanecarboxylate]
9.82 | 8.52 | CC1(O)CN([C@H]2CC[C@H](n3cc(C(N)=O)c(Nc4ccc(C(F)(F)F)cc4)n3)[C@@H](C#N)C2)C1 (single isomer, unassigned) [Example 28-198, 1-[(1S,2S,4S or 1R,2R,4R)-2-cyano-4-(3-hydroxy-3-methylazetidin-1-yl)cyclohexyl]-3-{[4-(trifluoromethyl)phenyl]amino}-1H-pyrazole-4-carboxamide]
7.68 | 7.19 | N#C[C@H]1C[C@@H](O)CC[C@@H]1n1cc(C(N)=O)c(Nc2ccc(C(F)(F)F)nc2)n1 (single isomer, unassigned) [Example 33-9, 1-[(1S,2S,4S or 1R,2R,4R)-2-cyano-4-hydroxycyclohexyl]-3-{[6-(trifluoromethyl)pyridin-3-yl]amino}-1H-pyrazole-4-carboxamide]
